From patent US12391653B2, “Salt form and crystal form of mutant IDH1 inhibitor and preparation method therefor” (KPC PHARMACEUTICALS, INC, priority 2019, dated 2025)

Columns and labels:
[1] = Solid stability test (crystalline form by XRPD); assay type: physicochemical; settings: Light (total illuminance = 1.2 × 10^6 Lux, Near UV = 200 w · hr/m^2, open)
[2] = Hygroscopicity study by dynamic vapor sorption (DVS); assay type: physicochemical; settings: 25° C. and 80% RH
Description: Dynamic Vapor Sorption (DVS) Method of the Present Disclosure
Instrument model: SMS DVS intrinsic dynamic moisture adsorption instrument
Test conditions: 10 mg of the sample was weighed out and placed in a DVS sample tray for testing.
The detailed DVS parameters were as follows:
RH (%) test gradient range: 0%-95%-0%
The hygroscopicity evaluation is classified as follows:
SMS DVS intrinsic Dynamic Vapor Sorption Instrument

[3] = Solid stability test (crystalline form by XRPD); assay type: physicochemical
Description: According to the “Guidelines for Stability Test of Raw Materials and Preparations” (General Principles 9001 of Part Four of Chinese Pharmacopoeia 2015 Edition), crystalline form E of the compound represented by formula (I) was investigated for stability at high temperature (60° C., open), high humidity (room temperature/relative humidity 92.5%, open) and strong light (5000 lx, closed).
About 10 mg of compound represented by formula (I) was accurately weighed out, placed in a dry and clean glass bottle, spread out into a thin layer and covered with aluminum foil with small holes under the influence factor test conditions (60° C., 92.5% RH) and accelerated conditions (40° C./75% RH and 60° C./75% RH). The samples placed under the condition of light (visible light 1200000 Lux, ultraviolet 200 W) were in transparent glass bottles, with one group fully exposed and the other fully packaged with aluminum foil. Samples in duplicate were placed under each condition at each time point, and the samples for XRPD detection were placed separately. Samples placed under different conditions were sampled for XRPD detection at the planned test end point, and the test results were compared with the initial test results at Day 0.

IDH1 (R132C) = IDH1 (R132C) (Homo sapiens, UniProt O75874, R132C); assay: IDH1 enzyme activity test in vitro (IDH1 R132C); assay type: biochemical
Sequence of IDH1 (R132C) (O75874 whole entry R132C): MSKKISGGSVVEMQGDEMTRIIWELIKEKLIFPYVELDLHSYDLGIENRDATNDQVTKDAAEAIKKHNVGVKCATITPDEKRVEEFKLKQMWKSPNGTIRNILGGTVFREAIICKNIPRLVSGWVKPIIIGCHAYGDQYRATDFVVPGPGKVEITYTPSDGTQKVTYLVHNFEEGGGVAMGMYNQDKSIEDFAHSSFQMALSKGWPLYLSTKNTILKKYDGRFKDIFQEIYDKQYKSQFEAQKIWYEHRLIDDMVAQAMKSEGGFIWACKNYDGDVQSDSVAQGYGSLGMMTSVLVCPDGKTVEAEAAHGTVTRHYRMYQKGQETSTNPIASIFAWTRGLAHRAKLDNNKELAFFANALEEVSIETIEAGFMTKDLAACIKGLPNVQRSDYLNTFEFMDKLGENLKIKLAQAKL
Description: (§1) IDH1 mutant catalyzes the NADPH-dependent reduction of α-KG (α-ketoglutaric acid) to 2-HG (2-hydroxyglutaric acid), and the consumed NADPH can be read out by fluorescence.
(§2) Basic reaction buffer: 50 mM KH2PO4, pH 7.5, 10 mM […], 10% glycerol, 150 mM NaCl, 0.05% BSA (bovine serum albumin), 2 mM b-ME (2-mercaptoethanol), 0.003% Brij35 (oxyethylene lauryl ether)
(§3) Substrates and cCofactors:
(§4) 1.33× enzyme (no control wells), buffer and NADP or NADPH (control wells) were added to the wells of a reaction plate. The compounds to be tested were dissolved in 100% DMSO, then added to the enzyme mixture (Echo550, nanoliter level) and incubated for 60 min after brief centrifugation. A mixture of 4× substrate and cofactor was added to start the reaction, briefly centrifuged, shaken, and incubated at room temperature for 45 min. A mixture of 3× lipoamide dehydrogenase and resazurin was prepared, added to the reaction solution to test the amount of the generated or remaining NADPH, incubated at room temperature for 10 min after simple centrifugation, and measured using a multifunctional microplate reader Envision (Ex/Em±535/590 nm).

U87MG IDH1-R132H = target: T1, U87MG IDH1-R132H (Homo sapiens, UniProt O75874, R132H); assay: IDH1 cytological activity test, 2HG content in cell culture supernatant by LC-MS; assay type: cell-based
T1 construct: expressed in transfected cells; host or cells: U87MG
T1 sequence (O75874 whole entry R132H): as the sequence (O75874 whole entry R132C) above, with C132H counted along it
Description: In this study, after co-incubating the compound with IDH1 mutant cell lines, the 2HG content in the cell culture supernatant was detected by LC-MS to determine the inhibitory activity of the compound on IDH1 mutants. IDH1 catalyzes the reduction of isocitrate to α-ketoglutaric acid (α-KG) in vivo, while IDH1 mutants further catalyze the reduction of α-KG to 2-hydroxyglutaric acid (2HG).
U87MG-IDH1-R132H cell line is a stable transfected cell line that can stably express IDH1-R132H mutant by transfecting U87MG cells with IDH1-R132H, and HT1080 cell line contains endogenous IDH1-R132C mutant.
The experimental process is as follows:
1) The compound was 3-fold serially diluted with DMSO and added to a cell culture plate, with a total of 10 concentrations, each concentration in duplicate. Negative control wells contained DMSO only, and positive control wells contained BAY1436032 at a final concentration of 5 μM. The final concentration of DMSO in all wells was 0.5%.
2) The IDH1 mutant cell line was seeded into the compound-containing cell culture plate at a density of 40,000 cells/well. Cells were co-incubated with compounds for 3 days in a 37° C., 5% CO2 incubator.
3) After 3 days, 10 μl of cell culture supernatant was taken, diluted 21 times with 200 μl of ddH2O to 210 μl and mixed well. […]

[4] = Pharmacokinetic evaluation in mice; parameters: species or system CD-1 mice; settings: mouse, in vivo
Description: The pharmacokinetic parameters of the compound represented by formula (I) were detected in mice.
1) Experimental drug: compound represented by formula (I);
2) Experimental animals: 8 male CD-1 mice aged 7-10 weeks, divided into 2 groups, 4 mice in each group;
3) Drug preparation: for the tail vein injection group, an appropriate amount of the drug was weighed out and dissolved in a mixed solvent of DMSO: 20% hydroxypropyl beta-cyclodextrin (HPbCD)±10:90 to prepare a solution of 0.5 mg/mL; for the gavage administration group, an appropriate amount of the drug was weighed out and dissolved in a mixed solvent of DMSO: polyoxyethylene castor oil EL (Cremophor EL): 5% sulfobutylcyclodextrin (Captisol)±5:10:85 to prepare into a suspension.
Animals in group 1 were given a single dose of 1 mg/kg drug at a concentration of 0.5 mg/mL via tail vein injection, and animals in group 2 were given the compound at a dose of 20 mg/kg at a concentration of 2 mg/mL by gavage. Animals were cross-collected for plasma samples at 0.0833 (the tail vein injection group only), 0.25, 0.5, 1, 2, 4, 6, 8 and 24 h after administration. The drug concentration in the plasma samples was determined by LC-MS/MS method, and the kinetic parameters of the tested drugs were obtained in Table 11: […]

IDH1 (R132H) = IDH1 (R132H) (Homo sapiens, UniProt O75874, R132H); assay: IDH1 enzyme activity test in vitro (IDH1 R132H); assay type: biochemical
Sequence of IDH1 (R132H) (O75874 whole entry R132H): as the sequence (O75874 whole entry R132C) above, with C132H counted along it
Description: as §1, §2, §3, §4

IDH1 wt (wild type) = IDH1 wt (wild type) (Homo sapiens, UniProt O75874); assay: IDH1 enzyme activity test in vitro (IDH1 wild type); assay type: biochemical
Sequence of IDH1 wt (wild type) (O75874 whole entry): as the sequence (O75874 whole entry R132C) above, with C132R counted along it
Description: as §1, §2, §3
IDH1 wt (wild type): 65 μM isocitrate ±50 μM NADP
as §4

Row | SMILES | Crystalline form ([1]; 5 days) | Crystalline form ([1]; 10 days) | Hygroscopic classification [2] | hygroscopic weight gain ΔW [2] [%] | Crystalline form ([3]; 0 days (initial)) | Crystalline form ([3]; 25° C./92.5% RH, open, 5 days) | Crystalline form ([3]; 25° C./92.5% RH, open, 10 days) | Crystalline form ([3]; 40° C./75% RH, open, 1 month) | Crystalline form ([3]; 40° C./75% RH, open, 2 months) | Crystalline form ([3]; 40° C./75% RH, open, 3 months) | Crystalline form ([3]; 60° C., open, 5 days) | Crystalline form ([3]; 60° C., open, 10 days) | Crystalline form ([3]; 60° C./75% RH, open, 1 month) | Crystalline form ([3]; 60° C./75% RH, open, 2 months) | inhibitory effect on mutant IDH1R132C at the enzymatic level (IDH1 (R132C)) | 2-HG inhibitory effect on U87MG glioma cells with IDH1R132H mutation (U87MG IDH1-R132H) | IC50 (U87MG IDH1-R132H; 2-HG inhibition, cells co-incubated with compound for 3 days) [nM] | pharmacokinetic properties in mice [4] | inhibitory effect on mutant IDH1R132H at the enzymatic level (IDH1 (R132H)) | inhibitory effect on wild-type IDH protein (IDH1 wt (wild type))
1 | O=C(O)CCc1ccc2c(c1)nc(Nc1ccc(OC(F)(F)F)cc1)n2[C@@H]1CCCc2ccccc21 | Crystalline form B | Crystalline form B | non-hygroscopic | 0.09 | Crystalline form B | Crystalline form B | Crystalline form B | Crystalline form B | Crystalline form B | Crystalline form B | Crystalline form B | Crystalline form B | Crystalline form B | Crystalline form B |  |  |  |  |  | 
2 | O=C(O)CCc1ccc2c(c1)nc(Nc1ccc(OC(F)(F)F)cc1)n2[C@@H]1CCCc2ccccc21 [Compound represented by formula (I)] |  |  |  |  |  |  |  |  |  |  |  |  |  |  | good inhibitory effect | good 2-HG inhibitory effect | 38.2 | good pharmacokinetic properties | good inhibitory effect | no inhibitory effect
